Entries after “also recorded” stand apart in the source; their conditions may differ.
Experiments:
TGF-β1 mRNA [1] = test: TGF-β1 mRNA expression by qRT-PCR in rabbit ear wound sites; type: in vivo, New Zealand White rabbits; details: for Rabbit TGFB1 mRNA Expression Fold by Treatment Relative to Untreated Wounded (mean ± SD): rabbit ear wound sites, Treated (each drug), N 5 or 6, intradermal; for mean TGFb1 mRNA level after intradermal treatment, in words: rabbit ear, compared with the vehicle-treated wound
Method: (§1) Eight wounds were created on the ventral surface of the ears of each of New Zealand White rabbits using skin punch biopsies, and then the wounds were allowed to heal for approximately 2 weeks.
(§2) A dose (e.g., 1%) of axitinib, nintedanib, riociguat, sorafenib, sunitinib, and/or lenvatinib was administered into the dermal tissue, once every two weeks on two occasions. Again, the specific doses, treatment methods and schedules are for illustration only. One skilled in the art would appreciate that variations and modifications are possible to achieve similar results.
(§3) On Day 42 post wound, the rabbits were sacrificed and dermal tissues were collected for qualitative and quantitative evaluation using hematoxylin and eosin and Mason's Trichrome staining. In addition, TGF-β1 mRNA expression levels were measured using qRT-PCR.

[2] = test system: full-thickness excision wounds on the dorsum of Yucatan minipigs; test: Yucatan minipig full-thickness excision wound model, histologic evaluation (H&E, Mason's Trichrome); type: in vivo; details: for Fibroplasia; dermis, Average Scores / Neovascularization; dermis, Average Scores: minipig wound sites after two doses, Day 59 post wound, average of individual scores, scale 1 minimal to 5 severe
Description: Porcine skin resembles human skin in many aspects. Both species have a relatively thick epidermis, distinct rete pegs, dermal papillae, and dense elastic fibers in the dermis. Furthermore, unlike rodents and rabbits, porcine skin is adherent to the subcutaneous structures, similar to human skin. Because of these anatomical similarities and other parallelisms in wound healing, porcine models have emerged as important foundations for the study of pathophysiology and potential treatment paradigms for abnormal wound healing. It has also been observed in porcine full-thickness wound healing in Yucatan Minipigs that the spatial and temporal expressions of TGF-β1, PDGF and VEGF were similar to the patterns for the growth factors described above. Therefore, the full-thickness excision models in Yucatan minipigs are the models for human wound healing studies.
(§4) In this experiment, multiple full-thickness excision wounds were made to the dorsum of Yucatan minipigs, and the wound sites were allowed to re-epithelialized adequately. At four weeks post-wound, the wound sites had normal to pink vascularity and had pliability. Epidermal hyperplasia was observed, as expected for regenerative responses in the full-thickness wounds.
(§5) On Day 28 post-wound, a dose (e.g., 1%) of axitinib, nintedanib, riociguat, sorafenib, sunitinib, and/or lenvatinib was administered into the dermal tissue at or around the wound sites, once every two weeks on two occasions. One wound site was left untreated as the control for each pig. Please note that the particular parameters in this example are only for illustration. One skilled in the art would appreciate that the dosages, administration methods, treatment regimen, and the administration sites may be varied to achieve similar results.
On Day 59 post wound, the minipigs were sacrificed and dermal tissues were collected for qualitative and quantitative evaluation using hematoxylin and eosin, and Mason's Trichrome staining. Dermal fibroplasia was characterized by increased numbers of fibroblasts in the dermis suspended in variable amounts of collagen in wounds.

[3] = test system: rabbit ear hypertrophic scar; test: Rabbit ear hypertrophic scar model, histologic evaluation (H&E, Mason's Trichrome); type: in vivo, New Zealand White rabbits; details: intradermal, Day 42 post wound, compared with untreated and vehicle-treated wound; for fibrosis of treated wound, in words / neovascularization of treated wound, in words: once every two weeks on two occasions
Description: In rabbits, wounds are created down to the bare cartilage on the ventral surface of the ear using a dermal biopsy punch. […] By both appearance and histological analysis, these scars resemble human hypertrophic scars. In this established model, it was shown that reduced TGF-β expression results in reduced scarring, which is consistent with the current understanding of the pathogenesis of excessive scarring/dermal fibrosis. […] Thus, this rabbit model was also used to assess the compounds of the invention.
as §1, §2, §3
Histologic slides for hematoxylin and eosin stainings were prepared from the wound sites. Tissues were evaluated qualitatively for inflammation, neovascularization, granulation tissue, degrees of re-epithelialization, and degrees of scarring (avascular collagen).

TGF-β1 mRNA [4] = test: TGF-β1 mRNA expression by qRT-PCR in Yucatan pig skin wound sites; type: in vivo, Yucatan minipigs; details: minipig; compared to unwounded normal skin
Description: as §4, §5
In addition, total mRNA was isolated from skin biopsies of the treated wound sites and the untreated unwounded sites of the pigs. The mRNA samples were used to prepare cDNA and analyzed via qRT-PCR. The TGF-β1 expression levels were assessed using beta actin as a reference gene.

[5] = minipig, two biweekly treatments, histopathology relative to the untreated wound

Structure (SMILES)	Rabbit TGFB1 mRNA Expression Fold by Treatment Relative to Untreated Wounded (mean ± SD) (TGF-β1 mRNA [1])	mean TGFb1 mRNA level after intradermal treatment, in words (TGF-β1 mRNA [1])	Fibroplasia; dermis, Average Scores [2]	Neovascularization; dermis, Average Scores [2]	re-epithelialization of treated wound, in words [3]	fibrosis of treated wound, in words [3]	neovascularization of treated wound, in words [3]	TGF-β1 mRNA expression level at treated wounds, in words (TGF-β1 mRNA [4])	dermal fibroplasia / fibrosis at treated wound, in words [2, 5]	neovascularization at treated wound, in words [2, 5]	scar tissues of treated wound, in words [3]
COc1cc2nccc(Oc3ccc(NC(=O)NC4CC4)c(Cl)c3)c2cc1C(N)=O [lenvatinib]	0.66 ± 0.25 Fold	lower	(3.00)	(2.33)	similar	similar	similar	–	–	–	–
CCN(CC)CCNC(=O)c1c(C)[nH]c(/C=C2\C(=O)Nc3ccc(F)cc32)c1C [sunitinib]	0.76 ± 0.23 Fold	–	(2.67)	(2.33)	–	–	–	–	–	–	–
COC(=O)N(C)c1c(N)nc(-c2nn(Cc3ccccc3F)c3ncccc23)nc1N [riociguat]	1.14 ± 0.14 Fold	–	(2.67)	(2.67)	–	slightly decreased	slightly decreased	most effective	–	–	–
CNC(=O)c1ccccc1Sc1ccc2c(/C=C/c3ccccn3)n[nH]c2c1 [axitinib]	0.87 ± 0.28 Fold	–	(2.33)	(1.67)	–	–	–	–	–	–	–
COC(=O)c1ccc2c(c1)NC(=O)/C2=C(\Nc1ccc(N(C)C(=O)CN2CCN(C)CC2)cc1)c1ccccc1 [nintedanib]	0.73 ± 0.13 Fold	lower	(2.33)	(1.67)	–	decreased	decreased; also recorded: much less	most effective	reduced	noticeably reduced	less
CNC(=O)c1cc(Oc2ccc(NC(=O)Nc3ccc(Cl)c(C(F)(F)F)c3)cc2)ccn1 [sorafenib]	0.87 ± 0.13 Fold	lower	(3.00)	(2.33)	–	–	slightly increased	most effective	–	–	–

Source: patent US20200330446A1, “COMPOSITIONS AND METHODS OF TREATING SKIN FIBROTIC DISORDERS” (AIVIVA BIOPHARMA, INC., priority 2015, published 2020)
